Where “and” joins values, the source holds several entries; their conditions need not be identical. Identical values can stand only once.
What was measured:
[1] = tested on: MS patients in the relapsing and remitting course of the disease (RRMS); assay: Slope of cortical atrophy at six months as a function of CE lesion number; assay type: in vivo, human; conditions: n=70
Procedure: To evaluate the connection between the reduction in cortical volume loss and CHS-131 treatment, cortical volume was compared to observed CE lesion in the MS patients. […] The slopes of cortical atrophy at six months as a function of CE lesion number at six months was plotted for the placebo group (n=69), the CHS-131 1 mg/day group (n=70), and the CHS-131 3 mg/day group (n=70). For the placebo, 1 mg/day, and 3 mg/day groups the slopes were: −0.040391, −0.019631, and −0.001783, respectively. […] Thus, the reduction in CE lesions as a result of CHS-131 treatment is correlated with a reduction in the loss of cortical volume in MS patients.

[2] = tested on: MS patients in the relapsing and remitting course of the disease (RRMS); assay: Phase 2 trial: new and enlarged T2 lesions over 6 months; assay type: in vivo, human; conditions: for mean number of new and enlarged T2 lesions over 6 months: n=76
Procedure: A Phase 2, randomized, double-blind, placebo-controlled, multi-center clinical trial of CHS-131 for the treatment of multiple sclerosis (MS) was conducted. The primary endpoint was the number of new gadolinium contrast-enhancing (CE) T1-weighted lesions on monthly MRI over 6 months. The study enrolled MS patients in the relapsing and remitting course of the disease (RRMS) who had been diagnosed within ≤3 years of enrollment. Patients had to be treatment-naïve, have ≥1 gadolinium-positive lesion within 12 months of enrollment, and have an Expanded Disability Status Score (EDSS) of 0-6 at screening. Part 1 was a double-blind, parallel-group, 6-month study. Patients were randomized to oral CHS-131 at 3 mg or 1 mg or placebo in a 1:1:1 ratio at 21 sites in Russia. Monthly MRIs were read in a blinded fashion at the Buffalo Neuroimaging and Analysis Center, Buffalo, N.Y., USA. Part 2 is an open label, 6-month, safety extension study, in which all subjects transition to 1 mg CHS-131 daily, to evaluate clinical response, CE lesions on MM, and safety. The mean number of new and enlarged lesions over 6 months was 3.43 for 3 mg CHS131 (n=76), 4.21 for 1 mg CHS131 (n=76), and 4.89 for placebo (n=74). The response was dose-dependent.

[3] = tested on: MS patients in the relapsing and remitting course of the disease (RRMS); assay: Calculated dose response curve: expected new gadolinium CE T1-weighted lesions over six months; parameters: species or system human
Procedure: To test the hypothesis that women will benefit from higher doses of CHS-131 and identify efficacious doses of CHS-131 for women, a dose response curve was calculated. The dose response curve was calculated to determine the efficacy of various daily dose of CHS-131 for males and females. The dose-response curve is assumed to have the following form: RDose=α exp β−Dose+γ Parameter β was determined from negative binomial regression using the observed total new GAD CE lesions 6 Months and numeric dosage of 0, 1, 3 mg. Parameters α and γ were determined using least-squares method on the observed mean total new GAD CE lesions 6 Months. Based on the clinical trial data, we calculated the expected number of new gadolinium CE T1-weighted lesions that would be seen over six months on doses of CHS-131 ranging from 1 to 10 mg per day. Table 7 below provides a tabular report of the percent reduction compared to the number of lesions at a 0 mg dose.

O=S(=O)(Nc1cc(Cl)c(Oc2cnc3ccccc3c2)c(Cl)c1)c1ccc(Cl)cc1Cl [CHS-131]
slope of cortical atrophy at six months as a function of CE lesion number ([1]; 1 mg/day): −0.01963
slope of cortical atrophy at six months as a function of CE lesion number ([1]; 3 mg/day): −0.001783
reduction in T2 lesions compared to placebo (LSMeans analysis) ([2]; 1 mg): 14%
mean number of new and enlarged T2 lesions over 6 months ([2]; 1 mg): 4.21
mean number of new and enlarged T2 lesions over 6 months ([2]; 3 mg): 3.43
reduction in T2 lesions compared to placebo (LSMeans analysis) ([2]; 3 mg, p=0.0767): 30%
Expected # of Lesions ([3]; Females, 1 mg): 7.14
Expected Percent Change from Placebo ([3]; Females, 1 mg): −25.9%
Expected Percent Reduction vs 0 mg dose ([3]; Females, 1 mg): 13.98%
Expected # of Lesions ([3]; Females, 2 mg): 6.15
Expected Percent Change from Placebo ([3]; Females, 2 mg): −36.0%
Expected Percent Reduction vs 0 mg dose ([3]; Females, 2 mg): 25.90%
Expected # of Lesions ([3]; Females, 3 mg): 5.31
Expected Percent Change from Placebo ([3]; Females, 3 mg): −44.7%
Expected Percent Reduction vs 0 mg dose ([3]; Females, 3 mg): 36.02%
Expected # of Lesions ([3]; Females, 4 mg): 4.59
Expected Percent Change from Placebo ([3]; Females, 4 mg): −52.1%
Expected Percent Reduction vs 0 mg dose ([3]; Females, 4 mg): 44.70%
Expected # of Lesions ([3]; Females, 5 mg): 3.97
Expected Percent Change from Placebo ([3]; Females, 5 mg): −58.5%
Expected Percent Reduction vs 0 mg dose ([3]; Females, 5 mg): 52% and 52.17%
Expected # of Lesions ([3]; Females, 6 mg): 3.45
Expected Percent Change from Placebo ([3]; Females, 6 mg): −63.9%
Expected Percent Reduction vs 0 mg dose ([3]; Females, 6 mg): 58.43%
Expected # of Lesions ([3]; Females, 7 mg): 3.00
Expected Percent Change from Placebo ([3]; Females, 7 mg): −68.5%
Expected Percent Reduction vs 0 mg dose ([3]; Females, 7 mg): 63.86%
Expected # of Lesions ([3]; Females, 8 mg): 2.62
Expected Percent Change from Placebo ([3]; Females, 8 mg): −72.4%
Expected Percent Reduction vs 0 mg dose ([3]; Females, 8 mg): 68.43%
Expected # of Lesions ([3]; Females, 9 mg): 2.29
Expected Percent Change from Placebo ([3]; Females, 9 mg): −75.8%
Expected Percent Reduction vs 0 mg dose ([3]; Females, 9 mg): 72.41%
Expected # of Lesions ([3]; Females, 10 mg): 2.01
Expected Percent Change from Placebo ([3]; Females, 10 mg): −100.0%
Expected Percent Reduction vs 0 mg dose ([3]; Females, 10 mg): 75.78%
Expected # of Lesions ([3]; Males & Females, 1 mg): 6.79
Expected Percent Change from Placebo ([3]; Males & Females, 1 mg): −31.4%
Expected Percent Reduction vs 0 mg dose ([3]; Males & Females, 1 mg): 17.20%
Expected # of Lesions ([3]; Males & Females, 2 mg): 5.63
Expected Percent Change from Placebo ([3]; Males & Females, 2 mg): −43.0%
Expected Percent Reduction vs 0 mg dose ([3]; Males & Females, 2 mg): 31.34%
Expected # of Lesions ([3]; Males & Females, 3 mg): 4.67
Expected Percent Change from Placebo ([3]; Males & Females, 3 mg): −52.6%
Expected Percent Reduction vs 0 mg dose ([3]; Males & Females, 3 mg): 43.05%
Expected # of Lesions ([3]; Males & Females, 4 mg): 3.89
Expected Percent Change from Placebo ([3]; Males & Females, 4 mg): −60.5%
Expected Percent Reduction vs 0 mg dose ([3]; Males & Females, 4 mg): 52.56%
Expected # of Lesions ([3]; Males & Females, 5 mg): 3.24
Expected Percent Change from Placebo ([3]; Males & Females, 5 mg): −66.9%
Expected Percent Reduction vs 0 mg dose ([3]; Males & Females, 5 mg): 60.49%
Expected # of Lesions ([3]; Males & Females, 6 mg): 2.71
Expected Percent Change from Placebo ([3]; Males & Females, 6 mg): −72.3%
Expected Percent Reduction vs 0 mg dose ([3]; Males & Females, 6 mg): 66.95%
Expected # of Lesions ([3]; Males & Females, 7 mg): 2.27
Expected Percent Change from Placebo ([3]; Males & Females, 7 mg): −76.6%
Expected Percent Reduction vs 0 mg dose ([3]; Males & Females, 7 mg): 72.32%
Expected # of Lesions ([3]; Males & Females, 8 mg): 1.92
Expected Percent Change from Placebo ([3]; Males & Females, 8 mg): −80.2%
Expected Percent Reduction vs 0 mg dose ([3]; Males & Females, 8 mg): 76.59%
Expected # of Lesions ([3]; Males & Females, 9 mg): 1.62
Expected Percent Change from Placebo ([3]; Males & Females, 9 mg): −83.2%
Expected Percent Reduction vs 0 mg dose ([3]; Males & Females, 9 mg): 80.24%
Expected # of Lesions ([3]; Males & Females, 10 mg): 1.38
Expected Percent Change from Placebo ([3]; Males & Females, 10 mg): −100.0%
Expected Percent Reduction vs 0 mg dose ([3]; Males & Females, 10 mg): 83.17%
Expected # of Lesions ([3]; Males, 1 mg): 6.33
Expected Percent Change from Placebo ([3]; Males, 1 mg): −42.0%
Expected Percent Reduction vs 0 mg dose ([3]; Males, 1 mg): 23.73%
Expected # of Lesions ([3]; Males, 2 mg): 4.81
Expected Percent Change from Placebo ([3]; Males, 2 mg): −56.1%
Expected Percent Reduction vs 0 mg dose ([3]; Males, 2 mg): 42.05%
Expected # of Lesions ([3]; Males, 3 mg): 3.64
Expected Percent Change from Placebo ([3]; Males, 3 mg): −67.1%
Expected Percent Reduction vs 0 mg dose ([3]; Males, 3 mg): 56% and 56.14%
Expected # of Lesions ([3]; Males, 4 mg): 2.73
Expected Percent Change from Placebo ([3]; Males, 4 mg): −75.5%
Expected Percent Reduction vs 0 mg dose ([3]; Males, 4 mg): 67.11%
Expected # of Lesions ([3]; Males, 5 mg): 2.03
Expected Percent Change from Placebo ([3]; Males, 5 mg): −82.1%
Expected Percent Reduction vs 0 mg dose ([3]; Males, 5 mg): 75.54%
Expected # of Lesions ([3]; Males, 6 mg): 1.49
Expected Percent Change from Placebo ([3]; Males, 6 mg): −87.1%
Expected Percent Reduction vs 0 mg dose ([3]; Males, 6 mg): 82.05%
Expected # of Lesions ([3]; Males, 7 mg): 1.07
Expected Percent Change from Placebo ([3]; Males, 7 mg): −91.0%
Expected Percent Reduction vs 0 mg dose ([3]; Males, 7 mg): 87.11%
Expected # of Lesions ([3]; Males, 8 mg): 0.74
Expected Percent Change from Placebo ([3]; Males, 8 mg): −94.1%
Expected Percent Reduction vs 0 mg dose ([3]; Males, 8 mg): 91.08%
Expected # of Lesions ([3]; Males, 9 mg): 0.49
Expected Percent Change from Placebo ([3]; Males, 9 mg): −96.4%
Expected Percent Reduction vs 0 mg dose ([3]; Males, 9 mg): 94.10%
Expected # of Lesions ([3]; Males, 10 mg): 0.30
Expected Percent Change from Placebo ([3]; Males, 10 mg): −100.0%
Expected Percent Reduction vs 0 mg dose ([3]; Males, 10 mg): 96.39%
reduction in new lesions on the dose response curve in Table 8 ([3]; men, 3 mg per day): 67%
expected reduction in lesions as compared to placebo (Table 8) ([3]; men, 5 mg per day as printed): 67%
expected reduction in lesions as compared to placebo (Table 8) ([3]; women, 5 mg per day): 56%

Reference: patent US20190224186A1, “TREATMENT OF MULTIPLE SCLEROSIS WITH CHS-131” (InteKrin Therapeutics, Inc., priority 2016, published 2019)
